A short description of data set [1]: Compound 1 crystallization kinetics at elevated temperature and 75% relative humidity. The data set is classed as physicochemical. The note with it: for Crystallization / stability towards crystallization: 75% relative humidity; for Compound 1 crystallized: at about 25 hours; for stability towards crystallization: 80° C. and 70° C. (FIGS. 12, 13). On the procedure:
FIG. 12 is a plot of crystallization kinetics data for Compound 1 at 80° C. and 75% relative humidity when in a Compound 2 free tablet (circles), a spray dried dispersion (squares), and a tablet comprising Compound 2 (triangles).
FIG. 13 is a plot of crystallization kinetics data for Compound 1 at 70° C. and 75% relative humidity when in a Compound 2 free tablet (circles), a spray dried dispersion (squares), and a tablet comprising Compound 2 (triangles).
FIGS. 12 and 13 depict the Compound 1 crystallization kinetics under 75% relative humidity and 80° C. and 70° C., respectively. Triangles represent a tablet formulation of a blend of the two separate spray dried dispersions of Compound 1 and Compound 2. Circles represent the same tablet formulation just lacking Compound 2. Squares represent the separate spray dried dispersion of Compound 1.
The phenomena of one therapeutic agent having improved properties in the presence of another therapeutic agent is not limited to the neat co-spray dried dispersions substantially free of polymer previously described. […] Table 2 lists the % crystallization of an 80% by weight SDD of Compound 1 over time at 80° C. at 75% relative humidity in the absence of Compound 2. Table 3 lists the % crystallization of Compound 1 in the presence of Compound 2 in a tablet of the present invention comprising a blend of Compound 1 SDD and Compound 2 SDD at […] at 75% relative humidity.

A short description of data set [2]: Kinetic dissolution / fluid stability in fed state simulated intestinal fluid (FedSIF). Type of data set: physicochemical. From the text: FIG. 9 is a bar graph of kinetic dissolution data for Compound 1 in fed state simulated intestinal fluid (FedSIF) solutions in the presence of Compound 2 in a neat coSDD substantially free of polymer and alone as measured by concentration versus time.
FIG. 10 is a bar graph of kinetic dissolution data for Compound 2 in FedSIF solutions in the presence of Compound 1 in a neat coSDD substantially free of polymer and alone as measured by concentration versus time.
The present invention features compositions where properties such as physical stability and dissolution rates are improved when one therapeutic agent is in the presence of another. […] FIG. 9 depicts fluid stability of Compound 1 in fed state simulated intestinal fluid (FedSIF). The set of bars labeled Neat 1:1 coSDD is the neat coSDD of Compound 1 and Compound 2 substantially free of polymer featured in the present invention. Along the y axis is concentration of Compound 1 in mg/ml and each bar along the x axis represents time: 0.5 h, 1 h, 3 h, 5 h, 29 h, and 72 h.
FIG. 10 depicts fluid stability of Compound 2 in compositions of the present invention in FedSIF. The set of bars labeled Neat 1:1 coSDD is the neat coSDD of Compound 1 and Compound 2 substantially free of polymer featured in the present invention.

Data set [3] in a line: Dog pK of tablets (Compound 2 exposure). The data set is classed as in vivo. From the text: FIG. 11 depicts the results of dissolution rate experiments for a tablet comprising the neat co-spray dried dispersion of Compound 1 and Compound 2 (circles) and a tablet comprising a spray dried dispersion of Compound 2 alone and polymer (triangles). […] When Compound 2 is in the presence of Compound 1, the maximum concentration and area under the curve increases by 73% and 47%, respectively, relative to Compound 2 alone.

Data set [4] is described as follows: Dissolution rate experiments in fasted simulated fluids. The data set is classed as physicochemical. The note with it: tablet of neat co-spray dried dispersion of Compound 1 and Compound 2 vs tablet of SDD of Compound 2 alone and polymer; fasted simulated fluids (FIG. 11). The text has this:
FIG. 11 is a plot of dissolution data for Compound 2 in fasted simulated fluids alone and in the presence of Compound 1 in a neat coSDD substantially free of polymer. […] FIG. 11 depicts the results of dissolution rate experiments for a tablet comprising the neat co-spray dried dispersion of Compound 1 and Compound 2 (circles) and a tablet comprising a spray dried dispersion of Compound 2 alone and polymer (triangles).

Where [5] appears, read: dog pK, ratio Neat coSDD tablet / Individual Tablets (Compound 2 alone).
[6] abbreviates: dog, Compound 2 in the presence of Compound 1 relative to Compound 2 alone.

Structures are written as SMILES.

As to `CC(C)(CO)c1cc2cc(NC(=O)C3(c4ccc5c(c4)OC(F)(F)O5)CC3)c(F)cc2n1C[C@@H](O)CO` [Compound 1, (R)-1-(2,2-difluorobenzo[d][1,3]dioxol-5-yl)-N-(1-(2,3-dihydroxypropyl)-6-fluoro-2-(1-hydroxy-2-methylpropan-2-yl)-1H-indol-5-yl)cyclopropanecarboxamide], the Crystallization came to 0% in data set [1] (80% by weight SDD of Compound 1, absence of Compound 2, 80° C., 0 Hrs.); 0% in data set [1] (80% by weight SDD of Compound 1, absence of Compound 2, 80° C., 5.2 Hrs.); 0% in data set [1] (80% by weight SDD of Compound 1, absence of Compound 2, 80° C., 6 Hrs.); 0.7% in data set [1] (80% by weight SDD of Compound 1, absence of Compound 2, 80° C., 9 Hrs.); 5% in data set [1] (80% by weight SDD of Compound 1, absence of Compound 2, 80° C., 14.7 Hrs.); 46.4% in data set [1] (80% by weight SDD of Compound 1, absence of Compound 2, 80° C., 25 Hrs.). Further, the Crystallization in data set [1] (80% by weight SDD of Compound 1, absence of Compound 2, 80° C., 168 Hrs.) was found to be 88%; in data set [1] (tablet comprising a blend of Compound 1 SDD and Compound 2 SDD, 80 CC, 0 Hrs.), 0%; in data set [1] (tablet comprising a blend of Compound 1 SDD and Compound 2 SDD, 80 CC, 7 Hrs.) it was 3%; in data set [1] (tablet comprising a blend of Compound 1 SDD and Compound 2 SDD, 80 CC, 14 Hrs.) it was 6%; in data set [1] (tablet comprising a blend of Compound 1 SDD and Compound 2 SDD, 80 CC, 21 Hrs.) it was 8%; in data set [1] (tablet comprising a blend of Compound 1 SDD and Compound 2 SDD, 80 CC, 26 Hrs.), 10%. The “Compound 1 crystallized” value was determined as 46% in data set [1] (in the absence of Compound 2) and 10% in data set [1] (when Compound 2 was present). In addition, the stability towards crystallization result in data set [1] (tablet blend of the two separate SDDs vs Compound 2 free tablet) is given as “significantly more stable towards crystallization”; in data set [1] (tablet formulation with Compound 2 vs separate spray dried dispersion of Compound 1), “also more stable”. The “concentration stability of Compound 1 in FedSIF” value in data set [2] (1:1 coSDD (20% HPMCAS) vs Compound 1 SDD (50% HPMCAS), over 72 h (FIG. 9)) is recorded as “concentration stability is greater”; in data set [2] (2:1 coSDD (20% HPMCAS) vs Compound 1 SDD (50% HPMCAS), over 72 h (FIG. 9)), “more consistent”. Also, in data set [2] (Neat 1:1 coSDD (no polymer) vs Compound 1 SDD (50% HPMCAS), over 72 h (FIG. 9)), the “stability of Compound 1 concentration in FedSIF” value is “greater and more consistent stability”.
With `CC(C)(C)c1cc(C(C)(C)C)c(NC(=O)c2c[nH]c3ccccc3c2=O)cc1O` [Compound 2, N-[2,4-bis(1,1-dimethylethyl)-5-hydroxyphenyl]-1,4-dihydro-4-oxoquinoline-3-carboxamide], in data set [3] (setting [5]), the “AUC wt norm, Geometric Mean Ratio” value was determined as 146.73 and the “Cmax wt norm, Geometric Mean Ratio” value was determined as 172.93. Further, in data set [3] (setting [6]), the “increase of area under the curve” value worked out at 47% and the “increase of maximum concentration” value is 73%. The exposure in vivo result in data set [3] (dog, tablet of neat coSDD relative to tablet of Compound 2 alone) was “statistically significant increases in exposure”. For the same compound, the “concentration stability of Compound 2 in FedSIF” value in data set [2] (1:1 coSDD (20% HPMCAS) vs Compound 2 SDD (20% HPMCAS), over 72 h (FIG. 10)) is given as “concentration stability is greater”. In addition, the “concentration stability of Compound 2 in FedSIF” value in data set [2] (2:1 coSDD (20% HPMCAS) vs Compound 2 SDD (20% HPMCAS), over 72 h (FIG. 10)) is on record as “more consistent”. For the same compound, the “stability of Compound 2 concentration in FedSIF” value in data set [2] (Neat 1:1 coSDD (no polymer) vs Compound 2 SDD (20% HPMCAS), over 72 h (FIG. 10)) was “increased stability”. Further, the “dissolution rate of Compound 2” value in data set [4] is given as “significant increase in dissolution rates”.

The record behind these values is patent US10206877B2, “Pharmaceutical compositions for the treatment of cystic fibrosis transmembrane conductance regulator mediated diseases” (Vertex Pharmaceuticals Incorporated, priority 2014, dated 2019).
